The test concerns the target T1, Dimer of Gag-Pol polyprotein [489-587] (Human immunodeficiency virus 1, UniProt P12497).
T1 construct: 489-587
Nature of the test: Protease Inhibition Assay. To be noted: pH 5.6; 37 °C. As to the method: Protease activity was measured by continuous chromogenic assay. The chromogenic peptide His-Lys-Ala-Arg-Val-Leu- (p-NO2-Phe)-Glu-Ala-Nleu-Ser (Bachem) was used as a substrate. Reactions were followed by the decrease of absorbance at 300 nm measured by spectrophotometer. Experimental results were analyzed by the nonlinear regression analysis, using a mathematical model for tight binding inhibitors.

Some results are limits rather than exact numbers.

As usually defined, the Ki is the dissociation constant of the complex between target and ligand, obtained from inhibition or displacement. The low end stands for a stronger hold on the target, the high end for a looser hold on the target. `CC(C)(c1ccccc1)N(CCO)C(=O)c1ccccc1CCC(O)Cc1ccccc1C(=O)N(CCO)C(C)(C)c1ccccc1` (stereo not drawn) [2-(3-hydroxy-4-{2-[(2-hydroxyethyl)(2-phenylpropan-2-yl)carbamoyl]phenyl}butyl)-N-(2-hydroxyethyl)-N-(2-phenylpropan-2-yl)benzamide] showed a Ki of 0.022 µM. As for `CC(C)(C)NC(=O)c1ccccc1CCC(O)Cc1ccccc1C(=O)NC(C)(C)C` (stereo not drawn) [2-Butanol deriv. 8], the figure is 24 µM. Take `CCC1(N(CCO)C(=O)c2ccccc2CC[C@@H](O)Cc2ccc(C)cc2C(=O)N(CCO)C(C)(C)c2ccccc2)CCCC1` [2-[(2R)-4-{2-[(1-ethylcyclopentyl)(2-hydroxyethyl)carbamoyl]phenyl}-2-hydroxybutyl]-N-(2-hydroxyethyl)-5-methyl-N-(2-phenylpropan-2-yl)benzamide]: the affinity corresponds to a Ki of 0.0048 µM.

In the case of `CCC1(N(CCO)C(=O)c2ccccc2CC[C@H](O)Cc2ccc(C)cc2C(=O)N(CCO)C(C)(C)c2ccccc2)CCCC1` [2-[(2S)-4-{2-[(1-ethylcyclopentyl)(2-hydroxyethyl)carbamoyl]phenyl}-2-hydroxybutyl]-N-(2-hydroxyethyl)-5-methyl-N-(2-phenylpropan-2-yl)benzamide], the affinity corresponds to a Ki of 1.4 µM. As for `CC(C)(C)NC(=O)c1ccccc1C[C@@H](O)[C@H](Cc1ccccc1)NC(=O)[C@H](CC(N)=O)NC(=O)c1ccc2ccccc2n1` [(2S)-N-[(2S,3R)-4-[2-(tert-butylcarbamoyl)phenyl]-3-hydroxy-1-phenylbutan-2-yl]-2-(quinolin-2-ylformamido)butanediamide], the figure is 0.0016 µM. The molecule `CC(C)(C)N(CCO)C(=O)c1ccccc1CCC(O)Cc1ccccc1C(=O)N(CCO)C(C)(C)c1ccccc1` (stereo not drawn) [N-tert-butyl-2-(3-hydroxy-4-{2-[(2-hydroxyethyl)(2-phenylpropan-2-yl)carbamoyl]phenyl}butyl)-N-(2-hydroxyethyl)benzamide] came in with a Ki of 0.09 µM.

With `CC(C)(C)NC(=O)c1ccccc1CC(O)CSc1ccccc1NC(=O)C(C)(C)C` (stereo not drawn) [N-tert-butyl-2-(3-{[2-(2,2-dimethylpropanamido)phenyl]sulfanyl}-2-hydroxypropyl)benzamide], the Ki is > 100 µM.

Turning to `CC(C)(C)NC(=O)c1ccccc1CC(O)CSc1ccccc1C(=O)NC(C)(C)C` (stereo not drawn) [N-tert-butyl-2-(3-{[2-(tert-butylcarbamoyl)phenyl]sulfanyl}-2-hydroxypropyl)benzamide], the Ki came to 83 µM. For `CC(C)(C)NC(=O)c1c(CC[C@H](O)Cc2ccc3ccccc3c2C(=O)NC(C)(C)C)ccc2ccccc12` [N-tert-butyl-2-[(3S)-4-[1-(tert-butylcarbamoyl)naphthalen-2-yl]-3-hydroxybutyl]naphthalene-1-carboxamide], the Ki turned out to be 0.481 µM. The molecule `CC(C)(C)NC(=O)c1ccccc1CCC(O)Cc1ccc2ccccc2c1C(=O)NC(C)(C)C` (stereo not drawn) [N-tert-butyl-2-{4-[2-(tert-butylcarbamoyl)phenyl]-2-hydroxybutyl}naphthalene-1-carboxamide] returned an inhibitory constant (Ki) of 2.2 µM. Compared with the last molecule, the Ki is about 4.6-fold higher. The value for `CC(C)(C)NC(=O)c1ccccc1SCC(O)Cc1ccccc1C(=O)N(CCO)C(C)(C)C` (stereo not drawn) [Tertiary Amide deriv. 6] was 34 µM; that for `CCC1(N(CCO)C(=O)c2ccccc2CCC(O)Cc2ccc(Cl)cc2C(=O)N(CCO)C(C)(C)c2ccccc2)CCCC1` (stereo not drawn) [Tertiary Amide deriv. 43cb] was 0.002 µM.

With `CC(C)(C)NC(=O)c1c(CC[C@@H](O)Cc2ccc3ccccc3c2C(=O)NC(C)(C)C)ccc2ccccc12` [diarylbutanol deriv. 7R], affinity was put at a Ki of 25 µM. Against the preceding molecule, the Ki is about 12000-fold higher.

Values taken from BindingDB's records for doi:10.1073/pnas.92.8.3298 (Agouron Pharmaceuticals, 1995).
